Experimental data taken from ChEMBL document CHEMBL1201862, “PubChem BioAssay data set” (2004).
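Tested at 5 concentrations; 48 h exposure; 96-well plates; endpoints linearly interpolated, else capped at highest concentration. GI50 marks 50% less growth.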 The source made the active and inactive calls. Rule as the data show it: active = GI50 up to about 1.1 µM and inactive = higher.

Tests used:
Experiment in all cases: growth of human tumour cells (NCI), 48 h
OVCAR-3 = system: OVCAR-3
SNB-75 = system: SNB-75
MOLT-4 = system: MOLT-4
COLO 205 = system: COLO 205
UACC-257 = system: UACC-257
SF-295 = system: SF-295
SR = system: SR
CCRF-CEM = system: CCRF-CEM
HCC 2998 = system: HCC 2998
A549 = system: A549
SK-OV-3 = system: SK-OV-3
DMS-114 = system: DMS-114
KM12 = system: KM12
SK-MEL-2 = system: SK-MEL-2
UACC-62 = system: UACC-62
Hs-578T = system: Hs-578T
HT-29 = system: HT-29
U-251 = system: U-251
HOP-92 = system: HOP-92
OVCAR-5 = system: OVCAR-5

Measured: GI50

O=C1c2ccccc2C(=O)c2c(NCCCNCCO)ccc(NCCCNCCO)c21
inactive: OVCAR-3 5.71 µM | SNB-75 7.13 µM | MOLT-4 3 µM | COLO 205 5.85 µM | UACC-257 15.2 µM | SF-295 7.33 µM | SR 3.65 µM | CCRF-CEM 3.08 µM | HCC 2998 5.37 µM | A549 11.5 µM | SK-OV-3 14.6 µM | DMS-114 6.01 µM | KM12 5.57 µM | SK-MEL-2 13.2 µM | UACC-62 9.42 µM | Hs-578T 5.52 µM | HT-29 4.82 µM | U-251 5.36 µM | HOP-92 10.7 µM | OVCAR-5 8.91 µM
